Experimental findings from publication PMC7804203, “Targeting adaptor protein SLP76 of RAGE as a therapeutic approach for lethal sepsis” (Nature Communications, 2021) are described below.

The subject of assay [1] is TNF secretion, RAW264.7 cells. The experiment in a line: ELISA of TNF from RAW264.7 cells pretreated with kinase inhibitors. It is filed as cell-based. The procedure:
(§1) Serum was separated from patient samples for measurement of AGEs with an ELISA kit (#MBS267540, MyBioSource, San Diego, CA, USA) according to the manufacturer’s instructions. […] Then, cultured cells were incubated with or without AGEs (100 μg/ml) for 12 h, and the supernatant was collected for the measurement of TNF (#MTA00B) and IL-6 (#M6000B) levels with ELISA kits (R&D Systems, Minneapolis, MN, USA) according to the manufacturer’s instructions.

The test system of assay [2] is IL-6 secretion, RAW264.7 cells. As to the kind of experiment: ELISA of IL-6 from RAW264.7 cells pretreated with kinase inhibitors. It is filed as cell-based. Set-up: unit not given here. The procedure:
as §1

The test system of assay [3] is ERK1/2 phosphorylation, BMDMs. As to the kind of experiment: Western blot, ERK1/2 phosphorylation in WT or SLP76-/- BMDMs stimulated with HMGB1. It counts as cell-based, mice. The note with it: relative to WT Ctrl = 1. As to the method:
(§2) Cultured cells in 6-well plates were harvested, washed twice with PBS, and lysed for 30 min on ice in 150 μl of cell lysis buffer (#9803) from CST (Boston, MA, USA) containing 1 mM PMSF and 2 μg/ml leupeptin. Proteins were quantified with the BCA method. Protein samples were resolved by 10% SDS-PAGE, transferred to a nitrocellulose (NC) membrane (#GE10600002), and blocked for 1 h with 5% nonfat milk in Tris-buffered saline containing 0.1% Tween 20 (TBST) at room temperature. After incubation with a specific primary antibody overnight at 4 °C, the membrane was washed with TBST three times. Then, the membrane was incubated with a secondary antibody for 1 h at room temperature. Enhanced chemiluminescence (ECL) (#32109, Thermo Fisher Scientific, Waltham, MA, USA) was used to visualize the protein bands, and images were acquired in a ChemiDoc™ Imaging System (Bio-Rad, Hercules, CA, USA). Each experiment was repeated at least three times.
(§3) BMDMs were isolated from WT, AGER knockout, and SLP76 knockout mice. Mice were euthanized, and the femur and tibia were isolated and sterilized in 70% ethanol for 15 s and then washed with PBS. A 25-gauge needle was used to flush out the bone marrow with DMEM supplemented with 1% FBS. Bone marrow cells were passed through a cell strainer (70 μm), washed with PBS, and plated into a […] dish at a density of 1 × 10^7 cells/10 ml medium. BMDMs were grown in DMEM supplemented with 10% FBS and M-CSF (#130-094-129) (20 ng/ml) at 37 °C, and the medium was refreshed on day 3. After growth for 7 days, the cells were ready for use in subsequent experiments.

The test system of assay [4] is p38 MAPK phosphorylation, BMDMs. As to the kind of experiment: Western blot, p38 MAPK phosphorylation in WT or SLP76-/- BMDMs stimulated with HMGB1. It is filed as cell-based, mice. The note with it: for Relative p38 MAPK phosphorylation, Supplementary figure 12a: relative to WT Ctrl = 1. As to the method:
as §2, §3

Assay [5] concerns IKKα/β phosphorylation, BMDMs. The experiment in a line: Western blot, IKKα/β phosphorylation in WT or SLP76-/- BMDMs stimulated with HMGB1. It is filed as cell-based, mice. The note with it: relative to WT Ctrl = 1. As to the method:
as §2, §3

A further assay relates to cytosolic tail of RAGE. The experiment in a line: SPRi binding affinity of SAM domain peptide to RAGE cytosolic tail peptide. The note with it: synthetic peptides, SAM 250, 500, 1000, 2000 nM, TBS pH 7.5, n=4. The procedure: To measure the binding affinity of the cytosolic tail of RAGE with the SAM domain of SLP76, a PlexArray HT A100 (Plexera, USA) was used to monitor the whole procedure in real time. Briefly, a chip with well-prepared biomolecular microarray was assembled with a plastic flow cell for sample loading. The synthesized peptide of RAGE cytosolic tail was prepared at 5 mM concentration in Tris-buffered saline (TBS) running buffer (20 mM Tris and 100 mM NaCl [pH 7.5]), and a 10 mM glycine-HCl buffer (pH 2.0) was used as regeneration buffer. The synthesized peptide of SLP76 SAM domain flowed at increasing concentrations (250, 500, 1000, 2000 nM). Binding data were collected and analyzed by a commercial SPRi analysis software (Plexera SPR Data Analysis Module, Plexera, USA).

[6] abbreviates: AGEs-, inhibitor alone, replicate Exp1, in pg/mL.
Where [7] appears, read: AGEs-, inhibitor alone, replicate Exp2, in pg/mL.
Where [8] appears, read: AGEs-, inhibitor alone, replicate Exp3, in pg/mL.
The mark [9] stands for this setting: inhibitor 1 h, then AGEs 100 μg/ml 12 h, replicate Exp1, in pg/mL.
Where [10] appears, read: inhibitor 1 h, then AGEs 100 μg/ml 12 h, replicate Exp2, in pg/mL.
[11] abbreviates: inhibitor 1 h, then AGEs 100 μg/ml 12 h, replicate Exp3, in pg/mL.
Setting [12] is: AGEs-, inhibitor alone, replicate Exp1.
[13] abbreviates: AGEs-, inhibitor alone, replicate Exp2.
The mark [14] stands for this setting: AGEs-, inhibitor alone, replicate Exp3.
Where [15] appears, read: inhibitor 1 h, then AGEs 100 μg/ml 12 h, replicate Exp1.
The mark [16] stands for this setting: inhibitor 1 h, then AGEs 100 μg/ml 12 h, replicate Exp2.
The mark [17] stands for this setting: inhibitor 1 h, then AGEs 100 μg/ml 12 h, replicate Exp3.

In the case of `COc1cc(O)c2c(c1)oc(=O)c1c3cc(O)c(O)cc3oc21` [NF-kB inhibitor], the “TNF level in culture medium” value in assay [1] (setting [6]) was 256.62; in assay [1] (setting [7]) it was 271.706; in assay [1] (setting [8]), 441.431; in assay [1] (setting [9]) it was 3097.6; in assay [1] (setting [10]) it was 4273.53; in assay [1] (setting [11]) it was 5262.53. Besides, the “IL-6 level in culture medium” value in assay [2] (setting [12]) was found to be 8.8; in assay [2] (setting [13]), 7.706; in assay [2] (setting [14]), 6.631; in assay [2] (setting [15]), 22.657; in assay [2] (setting [16]) it was 39.53; in assay [2] (setting [17]), 43.441.

As to `C[S+]([O-])c1ccc(-c2nc(-c3ccncc3)c(-c3ccc(F)cc3)[nH]2)cc1` (centres unmarked) [SB203580], the “TNF level in culture medium” value was 86.693 in assay [1] (setting [6]); 25.813 in assay [1] (setting [7]); 72.783 in assay [1] (setting [8]); 2106.86 in assay [1] (setting [9]); 5252.19 in assay [1] (setting [10]); 5785.62 in assay [1] (setting [11]). Also, the “IL-6 level in culture medium” value is 3.021 in assay [2] (setting [12]); 5.813 in assay [2] (setting [13]); 3.214 in assay [2] (setting [14]); 30.327 in assay [2] (setting [15]); 52.19 in assay [2] (setting [16]); 33.459 in assay [2] (setting [17]).

Take `COc1cccc(-c2cc(=O)c3ccccc3o2)c1N` [PD98059]: the “TNF level in culture medium” value in assay [1] (setting [6]) was determined as 26.755; in assay [1] (setting [13]) it was 0 pg/mL; in assay [1] (setting [8]) it was 9.578; in assay [1] (setting [9]), 1779.92; in assay [1] (setting [10]), 1294.03; in assay [1] (setting [11]) it was 1283.56. Also, the “IL-6 level in culture medium” value in assay [2] (setting [12]) worked out at 7.69; in assay [2] (setting [13]) it was 0; in assay [2] (setting [14]), 2.224; in assay [2] (setting [15]), 19.112; in assay [2] (setting [16]), 12.03; in assay [2] (setting [17]), 16.667.

B1: HMGB1: recombinant mouse HMGB1, Abcam (#ab181949) (protein, UniProt P63158 1-215, looked up)
High mobility group protein B1: MGKGDPKKPRGKMSSYAFFVQTCREEHKKKHPDASVNFSEFSKKCSERWKTMSAKEKGKFEDMAKADKARYEREMKTYIPPKGETKKKFKDPNAPKRPPSAFFLFCSEYRPKIKGEHPGLSIGDVAKKLGEMWNNTAADDKQPYEKKAAKLKEKYEKDIAAYRAKGKPDAAKKGVVKAEKSKKKKEEEDDEEDEEDEEEEEEEEDEDEEEDDDDE
As to B1, the “Relative ERK1/2 phosphorylation, Supplementary figure 12b” value came out at 7.033 in assay [3] (SLP76-/-, Exp1); 9.087 in assay [3] (SLP76-/-, Exp2); 4.787 in assay [3] (SLP76-/-, Exp3); 15.3469 in assay [3] (WT, Exp1); 12.0882 in assay [3] (WT, Exp2); 9.928 in assay [3] (WT, Exp3). In addition, in assay [4] (HMGB1 400 ng/ml, 15 min, p38 MAPK, ERK1/2, IKKα/β, text says RAW264.7 cells, figure BMDMs), the “Activation of proinflammatory signaling pathways” value is reported as “activated proinflammatory signaling pathways via SLP76”. Also, the “Relative p38 MAPK phosphorylation, Supplementary figure 12a” value in assay [4] (SLP76-/-, Exp1) was determined as 2.8038; in assay [4] (SLP76-/-, Exp2) it was 3.004; in assay [4] (SLP76-/-, Exp3), 2.223; in assay [4] (WT, Exp1), 7.041; in assay [4] (WT, Exp2), 4.728; in assay [4] (WT, Exp3) it was 5.924. Further, the “Relative IKKα/β phosphorylation, Supplementary figure 12c” value in assay [5] (SLP76-/-, Exp1) came out at 0.8306; in assay [5] (SLP76-/-, Exp2), 2.523; in assay [5] (SLP76-/-, Exp3), 0.8014; in assay [5] (WT, Exp1) it was 3.067; in assay [5] (WT, Exp2), 3.67; in assay [5] (WT, Exp3) it was 5.409.

B2: SAM domain of SLP76: synthesized peptide of SLP76 SAM domain used in SPRi (peptide)
peptide: WDPDSLADYFKKLNYKDCEKAVKKYHIDGARFLNLTENDIQKFPKLRVPILSKLSQEINKNEERRSI
In the case of B2, the “Binding to cytosolic tail of RAGE” value with cytosolic tail of RAGE is recorded as “dose-dependent binding”.
